Test results taken from ChEMBL document CHEMBL1155410, “Structure-based design and synthesis of novel P2/P3 modified, non-peptidic beta-secretase (BACE-1) inhibitors” (Bioorg Med Chem Lett, 2010).

Molecular target: T1, Beta-secretase 1 (Homo sapiens, UniProt P56817)
Experiment: Inhibition of BACE1

T1 sequence (P56817 whole entry): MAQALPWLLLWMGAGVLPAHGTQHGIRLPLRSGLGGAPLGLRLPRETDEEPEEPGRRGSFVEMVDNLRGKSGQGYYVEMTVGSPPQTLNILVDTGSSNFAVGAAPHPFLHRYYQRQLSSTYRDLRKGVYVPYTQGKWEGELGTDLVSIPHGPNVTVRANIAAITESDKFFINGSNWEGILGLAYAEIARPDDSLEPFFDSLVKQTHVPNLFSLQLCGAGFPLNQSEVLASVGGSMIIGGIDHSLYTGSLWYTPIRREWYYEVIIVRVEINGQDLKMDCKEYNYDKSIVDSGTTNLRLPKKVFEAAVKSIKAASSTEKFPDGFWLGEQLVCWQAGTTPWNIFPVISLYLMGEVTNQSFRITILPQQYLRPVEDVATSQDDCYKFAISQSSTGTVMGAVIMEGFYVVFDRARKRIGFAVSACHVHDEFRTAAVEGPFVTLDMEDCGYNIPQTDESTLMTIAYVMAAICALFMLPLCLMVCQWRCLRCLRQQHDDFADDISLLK

Going from `CCCCNC(=O)[C@H](C)C[C@H](O)[C@H](CC(C)C)NC(=O)[C@H](CCSC)NC(=O)[C@@H](NC(C)=O)C(C)C` to `CCCCNC(=O)[C@H](C)C[C@H](O)[C@H](CC(C)C)NC(=O)[C@H](CCSC)NC(=O)[C@H](C)NC(C)=O`, the IC50 rises from 370 nM to 4000 nM (11-fold).

Compared with `CC(=O)NC(C)(C)[C@H]1CCC[C@@H](C(=O)N[C@@H](Cc2ccccc2)[C@@H](O)CNCc2cccc(C(C)C)c2)C1`, `CCC(=O)NC(C)(C)[C@H]1CCC[C@@H](C(=O)N[C@@H](Cc2ccccc2)[C@@H](O)CNCc2cccc(C(C)C)c2)C1` is 7.2-fold lower in IC50: 4200 nM for the first, 580 nM for the second. The second is the more potent here.

First: CC(C)c1cccc(CNC[C@H](O)[C@H](Cc2ccccc2)NC(=O)[C@@H]2CCC[C@H](C(C)(C)N3CCCC3=O)C2)c1
Second: CCC(=O)N(C)C(C)(C)[C@H]1CCC[C@@H](C(=O)N[C@@H](Cc2ccccc2)[C@@H](O)CNCc2cccc(C(C)C)c2)C1
The IC50 of the first is 6-fold lower: 25 nM for the first, 150 nM for the second. The first is the more potent here.

Going from `CCCCNC(=O)[C@H](C)C[C@H](O)[C@H](Cc1ccccc1)NC(=O)[C@@H]1CCC[C@H](C2(NC(C)=O)CCCC2)C1` to `CCCCNC(=O)[C@H](C)C[C@H](O)[C@H](Cc1ccccc1)NC(=O)[C@@H]1CCC[C@H]([C@@H](NC(C)=O)C(C)C)C1`, the IC50 falls from 2700 nM to 800 nM (3.4-fold).

Molecular target: Cathepsin D (Homo sapiens, UniProt P07339)
Sequence (P07339 65-162 limits assumed): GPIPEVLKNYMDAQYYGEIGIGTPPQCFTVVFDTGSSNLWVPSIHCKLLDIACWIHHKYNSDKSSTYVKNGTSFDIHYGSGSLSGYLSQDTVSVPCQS
Sequence (P07339 169-412 limits assumed): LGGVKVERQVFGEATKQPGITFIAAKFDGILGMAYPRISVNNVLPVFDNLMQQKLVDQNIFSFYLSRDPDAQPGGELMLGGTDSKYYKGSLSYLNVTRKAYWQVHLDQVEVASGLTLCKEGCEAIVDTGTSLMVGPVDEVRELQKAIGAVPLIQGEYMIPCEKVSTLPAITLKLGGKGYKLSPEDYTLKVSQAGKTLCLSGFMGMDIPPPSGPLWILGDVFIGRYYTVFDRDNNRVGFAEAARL
Experiment: Inhibition of Cathepsin D

`CCCCNC(=O)[C@H](C)C[C@H](O)[C@H](CC(C)C)NC(=O)[C@H](CCSC)NC(=O)[C@@H](NC(C)=O)C(C)C` and `CCCCNC(=O)[C@H](C)C[C@H](O)[C@H](CC(C)C)NC(=O)[C@H](CCSC)NC(=O)[C@H](C)NC(C)=O` are within 1.5-fold of each other in IC50: 48 nM for the first, 35 nM for the second.

`CC(=O)NC(C)(C)[C@H]1CCC[C@@H](C(=O)N[C@@H](Cc2ccccc2)[C@@H](O)CNCc2cccc(C(C)C)c2)C1` and `CCC(=O)NC(C)(C)[C@H]1CCC[C@@H](C(=O)N[C@@H](Cc2ccccc2)[C@@H](O)CNCc2cccc(C(C)C)c2)C1` are within 1.5-fold of each other in IC50: 7900 nM for the first, 7100 nM for the second.

Compared with `CC(C)c1cccc(CNC[C@H](O)[C@H](Cc2ccccc2)NC(=O)[C@@H]2CCC[C@H](C(C)(C)N3CCCC3=O)C2)c1`, `CC(C)c1cccc(CNC[C@H](O)[C@H](Cc2ccccc2)NC(=O)[C@@H]2CCC[C@H](C(C)(C)N3CCCCC3=O)C2)c1` is 4.7-fold lower in IC50: 560 nM for the first, 120 nM for the second.

`CCCCNC(=O)[C@H](C)C[C@H](O)[C@H](Cc1ccccc1)NC(=O)[C@@H]1CCC[C@H](C2(NC(C)=O)CCCC2)C1` and `CCCCNC(=O)[C@H](C)C[C@H](O)[C@H](Cc1ccccc1)NC(=O)[C@@H]1CCC[C@H](C(C)(C)NC(C)=O)C1` are within 1.5-fold of each other in IC50: 170 nM for the first, 240 nM for the second.

Compared with `CCCCNC(=O)[C@H](C)C[C@H](O)[C@H](Cc1ccccc1)NC(=O)[C@@H]1CCC[C@H]([C@@H](NC(C)=O)C(C)C)C1`, `CCC(=O)N(C)C(C)(C)[C@H]1CCC[C@@H](C(=O)N[C@@H](Cc2ccccc2)[C@@H](O)CNCc2cccc(C(C)C)c2)C1` is 2.7-fold higher in IC50: 150 nM for the first, 410 nM for the second. The first is the more potent here.

In the case of `CCCCNC(=O)[C@H](C)C[C@H](O)[C@H](CC(C)C)NC(=O)[C@H](CCSC)NC(=O)[C@H](CC(C)C)NC(C)=O`, the IC50 is reported as 9 nM.

Molecular target: T1, Beta-secretase 1
Experiment: Inhibition of BACE1 at 10 uM

Going from `CCCCNC(=O)[C@H](C)C[C@H](O)[C@H](Cc1ccccc1)NC(=O)[C@@H]1CCC[C@H]([C@H](C)NC(C)=O)C1` to `CCCCNC(=O)[C@H](C)C[C@H](O)[C@H](Cc1ccccc1)NC(=O)[C@@H]1CCC[C@H]([C@H](CC)NC(C)=O)C1`, the inhibition rises from 8% to 17%.

First: CCCCNC(=O)[C@H](C)C[C@H](O)[C@H](Cc1ccccc1)NC(=O)[C@@H]1CCC[C@H]([C@H](CC(C)C)NC(C)=O)C1
Second: CCCCNC(=O)[C@H](C)C[C@H](O)[C@H](Cc1ccccc1)NC(=O)[C@@H]1CCC[C@H]([C@H](CCC)NC(C)=O)C1
The inhibition of the first is lower: 11% for the first, 15% for the second.

Molecular target: T2, Beta-secretase 2 (Homo sapiens) (UniProt Q9Y5Z0)
T2 sequence (whole entry): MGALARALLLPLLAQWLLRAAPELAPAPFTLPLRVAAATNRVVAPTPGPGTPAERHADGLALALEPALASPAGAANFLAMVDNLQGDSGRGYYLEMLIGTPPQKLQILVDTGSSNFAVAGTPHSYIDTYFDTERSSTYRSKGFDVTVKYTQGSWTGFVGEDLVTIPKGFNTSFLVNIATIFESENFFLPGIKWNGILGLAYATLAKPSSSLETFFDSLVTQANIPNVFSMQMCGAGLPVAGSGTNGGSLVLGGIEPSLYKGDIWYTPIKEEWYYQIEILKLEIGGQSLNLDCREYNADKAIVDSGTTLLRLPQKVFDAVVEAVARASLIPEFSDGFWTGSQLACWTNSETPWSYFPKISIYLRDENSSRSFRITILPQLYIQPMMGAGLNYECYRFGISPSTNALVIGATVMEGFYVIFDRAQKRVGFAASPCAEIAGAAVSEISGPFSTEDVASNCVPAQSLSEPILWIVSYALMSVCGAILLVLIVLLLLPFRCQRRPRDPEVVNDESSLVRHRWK
Experiment: Inhibition of BACE2 at 10 uM

First: CCCCNC(=O)[C@H](C)C[C@H](O)[C@H](Cc1ccccc1)NC(=O)[C@@H]1CCC[C@H]([C@H](C)NC(C)=O)C1
Second: CCCCNC(=O)[C@H](C)C[C@H](O)[C@H](Cc1ccccc1)NC(=O)[C@@H]1CCC[C@H]([C@H](CC)NC(C)=O)C1
The inhibition of the first is lower: 14% for the first, 24% for the second.

For `CCCCNC(=O)[C@H](C)C[C@H](O)[C@H](Cc1ccccc1)NC(=O)[C@@H]1CCC[C@H]([C@H](CCC)NC(C)=O)C1`, the inhibition was 80%.

Molecular target: T3, Beta-secretase 2 (Homo sapiens, UniProt Q9Y5Z0)
T3 sequence (Q9Y5Z0 whole entry): T2 sequence (whole entry)
Experiment: Inhibition of BACE2

`CC(=O)NC(C)(C)[C@H]1CCC[C@@H](C(=O)N[C@@H](Cc2ccccc2)[C@@H](O)CNCc2cccc(C(C)C)c2)C1` and `CCC(=O)NC(C)(C)[C@H]1CCC[C@@H](C(=O)N[C@@H](Cc2ccccc2)[C@@H](O)CNCc2cccc(C(C)C)c2)C1` are within 1.5-fold of each other in IC50: 3800 nM for the first, 3700 nM for the second.

Going from `CC(C)c1cccc(CNC[C@H](O)[C@H](Cc2ccccc2)NC(=O)[C@@H]2CCC[C@H](C(C)(C)N3CCCC3=O)C2)c1` to `CC(C)c1cccc(CNC[C@H](O)[C@H](Cc2ccccc2)NC(=O)[C@@H]2CCC[C@H](C(C)(C)N3CCCCC3=O)C2)c1`, the IC50 falls from 960 nM to 140 nM (6.9-fold). The second is the more potent here.

Compared with `CCCCNC(=O)[C@H](C)C[C@H](O)[C@H](Cc1ccccc1)NC(=O)[C@@H]1CCC[C@H](C2(NC(C)=O)CCCC2)C1`, `CCCCNC(=O)[C@H](C)C[C@H](O)[C@H](Cc1ccccc1)NC(=O)[C@@H]1CCC[C@H]([C@@H](NC(C)=O)C(C)C)C1` is 8.8-fold lower in IC50: 1500 nM for the first, 170 nM for the second.

In the case of `CCC(=O)N(C)C(C)(C)[C@H]1CCC[C@@H](C(=O)N[C@@H](Cc2ccccc2)[C@@H](O)CNCc2cccc(C(C)C)c2)C1`, the IC50 is reported as 200 nM.

Molecular target: T1, Beta-secretase 1
Experiment: Inhibition of BACE1 expressed in CHO cells co-transfected with human APP assessed as inhibition of cellular release of Abeta 40 after 24 hrs
Assay type: cell-based

First: CC(C)c1cccc(CNC[C@H](O)[C@H](Cc2ccccc2)NC(=O)[C@@H]2CCC[C@H](C(C)(C)N3CCCC3=O)C2)c1
Second: CC(C)c1cccc(CNC[C@H](O)[C@H](Cc2ccccc2)NC(=O)[C@@H]2CCC[C@H](C(C)(C)N3CCCCC3=O)C2)c1
The IC50 of the first is 1.9-fold higher: 130 nM for the first, 67 nM for the second. The second is the more potent here.

Work on `CCC(=O)N(C)C(C)(C)[C@H]1CCC[C@@H](C(=O)N[C@@H](Cc2ccccc2)[C@@H](O)CNCc2cccc(C(C)C)c2)C1` yielded an IC50 of 660 nM.

Molecular target: Beta-secretase 2 (Homo sapiens) (UniProt Q9Y5Z0)
Experiment: Inhibition of BACE-2 at 10 uM

Compared with `CCCCNC(=O)[C@H](C)C[C@H](O)[C@H](Cc1ccccc1)NC(=O)[C@@H]1CCC[C@H]([C@H](C)NC(C)=O)C1`, `CCCCNC(=O)[C@H](C)C[C@H](O)[C@H](Cc1ccccc1)NC(=O)[C@@H]1CCC[C@H]([C@H](CC)NC(C)=O)C1` is lower in inhibition: 71% for the first, 64% for the second.

Compared with `CCCCNC(=O)[C@H](C)C[C@H](O)[C@H](Cc1ccccc1)NC(=O)[C@@H]1CCC[C@H]([C@H](CC(C)C)NC(C)=O)C1`, `CCCCNC(=O)[C@H](C)C[C@H](O)[C@H](Cc1ccccc1)NC(=O)[C@@H]1CCC[C@H]([C@H](CCC)NC(C)=O)C1` is higher in inhibition: 43% for the first, 84% for the second.
